# Reference: PubChem BioAssay AID1944 (The Scripps Research Institute Molecular Screening Center, 2009)
# The source made the active and inactive calls. No rule for the calls is given here.
# Biological target: Replicase polyprotein 1ab (Severe acute respiratory syndrome coronavirus) (UniProt P0C6X7)
# Assay: SARS-CoV PLpro inhibitor potency, dose response, counter-screen for SARS-CoV 3CLpro inhibitor project, biochemical, luminescence (AID 1944)
# Settings: SARS-CoV PLpro enzymatic assay
row,Compound,IC50
1,Cc1ccc(C(=O)O)cc1NC(=S)NC(=O)c1ccc(COc2ccccc2)cc1,2480 nM
2,Cn1cnc2cc(NC(=O)c3ccc(Cl)cc3)ccc21,3280 nM
3,O=C(/C=C/c1cccs1)Nc1scc(-c2ccccc2)c1C(=O)O,45.5 nM
4,Cc1cc(=O)oc2cc(NC(=O)Cc3ccccc3[N+](=O)[O-])ccc12,> 59600 nM (inactive)
